Test results reported in PubChem BioAssay (NCI).
“And” between values parts separate entries of the source, which are not always exact repeats. Equal entries are not always repeated.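 In this assay, cells in 96-well plates receive the compound at five concentrations for 48 hours. Endpoints are linearly interpolated between the surrounding concentrations. The concentration for 50% growth inhibition is given as GI50. The concentration for full growth arrest is given as TGI.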

Key:
Experiment in all cases: NCI anticancer screen, dose series, 48 h
ACHN renal = system: ACHN renal
K-562 leukemia = system: K-562 leukemia
SF-295 CNS = system: SF-295 CNS
MOLT-4 leukemia = system: MOLT-4 leukemia
PC-3 prostate = system: PC-3 prostate
HCT-116 colon = system: HCT-116 colon
T-47D breast = system: T-47D breast
HCC-2998 colon = system: HCC-2998 colon
SF-539 CNS = system: SF-539 CNS
LOX IMVI melanoma = system: LOX IMVI melanoma

Compound | GI50 (ACHN renal) | TGI (ACHN renal) | GI50 (K-562 leukemia) | TGI (K-562 leukemia) | GI50 (SF-295 CNS) | TGI (SF-295 CNS) | GI50 (MOLT-4 leukemia) | TGI (MOLT-4 leukemia) | GI50 (PC-3 prostate) | TGI (PC-3 prostate) | GI50 (HCT-116 colon) | TGI (HCT-116 colon) | GI50 (T-47D breast) | TGI (T-47D breast) | GI50 (HCC-2998 colon) | TGI (HCC-2998 colon) | GI50 (SF-539 CNS) | TGI (SF-539 CNS) | GI50 (LOX IMVI melanoma) | TGI (LOX IMVI melanoma)
O=C1c2ccc3c4c(ccc(c24)C(=O)N1CCCNCc1ccccc1Cl)C(=O)N(CCCNCc1ccccc1Cl)C3=O | 0.206 µM | 0.859 µM | 0.183 µM | 1.12 µM | 0.494 µM | 1.22 µM | 0.168 µM | 0.722 µM | 0.268 µM | 1.56 µM | 0.126 µM | 0.344 µM | 0.787 µM | 2.17 µM | 0.191 µM | 0.651 µM | 0.669 µM | 1.38 µM | – | –
COc1ccc(Cl)c(Nc2nc3ccccc3nc2NS(=O)(=O)c2cccc(NC(=O)C(C)(C)N)c2)c1 | 10.5 µM and > 10 µM | 22.6 µM and > 10 µM | 14.9 µM and > 10 µM | 32.6 µM and > 10 µM | 4.7 µM and 2.56 µM | 18.8 µM and > 10 µM | 3.5 µM and 3.66 µM | 17.4 µM and > 10 µM | 3.42 µM and 2.65 µM | 17.5 µM and > 10 µM | 12.8 µM and > 10 µM | 25.8 µM and > 10 µM | 0.443 µM and 0.638 µM | 5.05 µM and 5.77 µM | 13 µM and 5.73 µM | 26.6 µM and > 10 µM | 7.35 µM and 4.42 µM | 20.4 µM and > 10 µM | 6.52 µM and 4.14 µM | 20.2 µM and > 10 µM
COc1ccc(/C=C(\C(=O)NCc2cccnc2)S(=O)(=O)c2ccccc2)cc1OC | 3.16 µM | 11.5 µM | 3.33 µM | > 100 µM | 2.95 µM | 9.11 µM | 3.35 µM | 89.1 µM | 3.5 µM | 14.5 µM | 2.11 µM | 6.12 µM | 2.59 µM | 10.8 µM | 3.91 µM | 15.1 µM | 2.49 µM | 6.74 µM | 3.09 µM | 11.8 µM
CC1=C(C(=O)N(C)c2ccc(Cl)c(C(=O)OC(C)C)c2)SCCO1 | – | > 100 µM | – | > 100 µM | – | > 100 µM | – | > 100 µM | – | > 100 µM | – | > 100 µM | – | > 100 µM | – | > 100 µM | – | > 100 µM | – | > 100 µM
OCCn1cnc2c(SCc3ccccc3)ncnc21 | – | > 100 µM | – | > 100 µM | – | > 100 µM | – | – | – | > 100 µM | – | > 100 µM | – | > 100 µM | – | > 100 µM | – | > 100 µM | – | > 100 µM
Cc1cnc(CNC(=O)c2c(=O)c3ccc(N4CCCN(C)CC4)nc3n3c2sc2ccccc23)cn1 | 0.305 µM | 14.9 µM | 1.82 µM | 10.6 µM | 1.32 µM | 18.6 µM | 0.0839 µM | 10.7 µM | 4.04 µM | 9.7 µM | 0.806 µM | 2.76 µM | 17.3 µM | 45.6 µM | 2.72 µM | 21.3 µM | 3.76 µM | 8.51 µM | 0.331 µM | 2.05 µM
NC(=O)c1ccc(-c2nc(-c3ccc4c(c3)OCO4)c(-c3ccccn3)[nH]2)cc1 | > 25 µM and 34 µM | > 100 µM | > 25 µM and 37.2 µM | > 100 µM | > 25 µM and 24.9 µM | > 25 µM and 79.1 µM | > 25 µM and 38.8 µM | > 100 µM | > 25 µM and 43.2 µM | > 100 µM | > 25 µM and 30.4 µM | > 100 µM | > 25 µM and 21.8 µM | > 100 µM | > 25 µM and 30.9 µM | > 100 µM | > 25 µM and 49 µM | > 100 µM | > 25 µM and 26.9 µM | > 84.4 µM
COc1cc(OC)c(C(=O)/C=C/c2cccc(C#N)c2)c(OC)c1 | 1.13 µM | 4.47 µM | 0.384 µM | > 50 µM | 1.31 µM | 5.51 µM | 1.13 µM | > 50 µM | 1.71 µM | 8.26 µM | 0.414 µM | 1.62 µM | 1.17 µM | 5.53 µM | 2.17 µM | 7.34 µM | 1.41 µM | 4.12 µM | 1.23 µM | 5.18 µM
CCC[CH2][Sn]1([CH2]CCC)[O]C2C(CO)OC(n3ccc(N)nc3=O)C2[O]1 (stereo not given) | 1.35 µM | 2.67 µM | 0.297 µM | > 100 µM | 1.93 µM | 3.72 µM | 1.64 µM | > 100 µM | 1.66 µM | 3.26 µM | 1.44 µM | 2.79 µM | 0.383 µM | 2.49 µM | 1.66 µM | 3.2 µM | 1.41 µM | 2.72 µM | 0.384 µM | 1.65 µM
NC(=O)Nc1cc(-c2cccc(F)c2)sc1C(=O)N[C@H]1CCCNC1 | 0.0512 µM and 0.0952 µM | > 4.73 µM and 2.75 µM | 0.0949 µM and 0.254 µM | > 10 µM and 10.5 µM | 0.0397 µM and 0.0882 µM | 0.776 µM and 2.87 µM | 0.0606 µM and 0.26 µM | > 10 µM and 1.8 µM | 0.502 µM and 0.521 µM | > 10 µM and 17.5 µM | 0.327 µM and 0.428 µM | 6.14 µM and 2.85 µM | 1.07 µM and 2.71 µM | > 10 µM and 18.8 µM | 0.117 µM and 0.273 µM | 1.4 µM and 2.64 µM | 0.0192 µM and 0.0616 µM | 0.17 µM and 0.331 µM | 0.0603 µM and 0.199 µM | 1.04 µM and 1.12 µM
CN(C)c1ccc(C(=NO)c2ccc(N(C)C)cc2)cc1 | 8.43 µM | > 100 µM | 0.418 µM | > 100 µM | – | – | 3.02 µM | > 100 µM | 18.1 µM | > 100 µM | 2.53 µM | > 100 µM | 5.59 µM | > 100 µM | 8.06 µM | > 100 µM | 3.38 µM | > 100 µM | 6.29 µM | > 100 µM
COc1ccccc1CNCCCN1C(=O)c2ccc3c4c(ccc(c24)C1=O)C(=O)N(CCCN)C3=O | 1.58 µM | 4.51 µM | 0.751 µM | 3.35 µM | 1.31 µM | 2.81 µM | 0.446 µM | 2.24 µM | 1.68 µM | 4.95 µM | 0.349 µM | 1.23 µM | 1.22 µM | 3.31 µM | 1.8 µM | 3.58 µM | 1.21 µM | 2.5 µM | 0.685 µM | 2.87 µM
Cc1nn(C)c(COc2ccc(N3CCN(S(=O)(=O)N(C)C)CC3)cc2)c1-c1cccc2c(CCCOc3cccc4ccccc34)c(C(=O)O)n(CCN3CCOCC3)c12 | 4.03 µM | 15.7 µM | 3.84 µM | > 100 µM | 2.78 µM | 10.2 µM | 3.52 µM | 16.5 µM | 3.27 µM | 10.7 µM | 3.08 µM | 15 µM | 2.4 µM | 9.38 µM | 2.81 µM | 9.34 µM | 2.44 µM | 6.17 µM | 3.16 µM | 11.6 µM
